Results: PubChem BioAssay (NCI)
Where “and” joins values, the source holds several entries; their conditions need not be identical. Equal values may be shown once.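 Five compound concentrations were applied to cells in 96-well plates for 48 hours; endpoints were derived by simple linear interpolation of the resulting dose-response curve. Abbreviation: GI50, concentration required for 50% inhibition of growth. TGI denotes the concentration required for complete inhibition of growth.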

Assays:
Assay in all cases: DTP human tumour cell line panel, 48 h
[1] = test system: HCC-2998 colon
[2] = test system: HCT-116 colon
[3] = test system: HL-60(TB) leukemia
[4] = test system: HT29 colon
[5] = test system: MALME-3M melanoma
[6] = test system: NCI-H226 lung
[7] = test system: NCI-H23 lung
[8] = test system: NCI-H522 lung
[9] = test system: OVCAR-5 ovarian
[10] = test system: SK-MEL-2 melanoma

SMILES | GI50 [1] | TGI [1] | GI50 [2] | TGI [2] | GI50 [3] | TGI [3] | GI50 [4] | TGI [4] | GI50 [5] | TGI [5] | GI50 [6] | TGI [6] | GI50 [7] | TGI [7] | GI50 [8] | TGI [8] | GI50 [9] | TGI [9] | GI50 [10] | TGI [10]
Nc1cccc2c1CN(C1CCC(=O)NC1=O)C2=O (stereo not drawn) | > 100 µM | > 100 µM | > 100 µM | > 100 µM | > 100 µM | > 100 µM | > 100 µM | > 100 µM | > 100 µM | > 100 µM | > 100 µM | > 100 µM | > 100 µM | > 100 µM | > 100 µM | > 100 µM | > 100 µM | > 100 µM | > 100 µM | > 100 µM
Cc1nn2c(=O)n(-c3cccc(-n4nnc5c(-c6ccccc6)c(C)nn5c4=O)c3C)nnc2c1-c1ccccc1 | – | 55.8 µM | – | 30.4 µM | – | 87.9 µM | – | > 100 µM | – | 56 µM | – | > 100 µM | – | > 100 µM | – | 33.2 µM | – | > 100 µM | – | 17.5 µM
O=C1c2ccccc2C(=O)c2c(NCCNCCO)ccc(NCCNCCO)c21 | 1.39 µM and 1.95 µM and 2.18 µM | 3.78 µM and 7.83 µM and 7.03 µM | 0.715 µM and 0.908 µM and 0.934 µM | 6.79 µM and 6.81 µM and 11.2 µM | 0.274 µM and 0.13 µM and 0.456 µM | 8.67 µM and 10.6 µM | 1.32 µM and 2.3 µM and 1.64 µM | 7.42 µM and 12.1 µM and 5.1 µM | 1.6 µM and 1.18 µM and 1.21 µM | 4.97 µM and 6.88 µM and 3.85 µM | 0.232 µM and 0.281 µM and 0.47 µM | 2.24 µM and 3.35 µM and 5.4 µM | 0.94 µM and 1.43 µM and 1.22 µM | 4.54 µM and 8.5 µM and 5.81 µM | 0.482 µM and 0.452 µM and 0.267 µM | 5.48 µM and 2.22 µM and 1.32 µM | 2.5 µM and 2.29 µM and 2.35 µM | 9.5 µM and 10.9 µM and 11.5 µM | 2.22 µM and 2.7 µM and 2.09 µM | 5.79 µM and 16.7 µM and 3.77 µM
Cc1ccc(SC2C(C)(C)N(C(C)C)P2(=O)N(C(C)C)C(C)C)cc1 (stereo not drawn) | – | > 100 µM | – | > 63.4 µM | – | 41.9 µM | – | > 100 µM | – | > 100 µM | – | > 100 µM | – | > 100 µM | – | > 74.2 µM | – | > 100 µM | – | > 100 µM
NS(=O)(=O)c1cccc(-c2cc3ccncc3cc2OCc2ccccc2)c1 | 15.2 µM | > 25 µM | 10.1 µM | > 25 µM | 4.64 µM | 13.5 µM | 6.05 µM | 16.8 µM | 14.7 µM | > 25 µM | 9.03 µM | > 25 µM | > 18.4 µM | > 25 µM | 13.5 µM | > 25 µM | 14.8 µM | > 25 µM | 7.43 µM | > 19.6 µM
Cc1ccc(C2NC(=S)N3C(c4ccc(C)cc4)NC(=S)N23)cc1 (stereo not drawn) | 4.51 µM | 17.4 µM | 4 µM | 13.4 µM | 1.88 µM | 5.67 µM | 2.58 µM | 10.2 µM | 12.4 µM | 28.1 µM | 6.85 µM | 29 µM | 5.29 µM | 17.9 µM | 1.94 µM | 8.54 µM | 14.7 µM | 28.2 µM | 3.4 µM | 12.1 µM
CCCCCCCCCCCCNC(=O)[C@H]1CSC(c2cc(Br)cs2)N1 (stereo partly drawn) | 2.73 µM | 9.41 µM | 0.909 µM | 1.74 µM | 1.01 µM | 2.49 µM | 1.59 µM | 5.76 µM | 3.68 µM | 10.2 µM | 0.895 µM | 1.76 µM | 1.53 µM | 5.11 µM | 1.37 µM | 4.31 µM | 1.94 µM | 6.49 µM | 0.916 µM | 1.77 µM
COc1ccccc1N(C(C)=O)C1=C(Cl)C(=O)c2ccccc2C1=O | 2.23 µM | 8.61 µM | 0.76 µM | 2.18 µM | 2.24 µM | 5.53 µM | 1.89 µM | 4.45 µM | 1.66 µM | 3.2 µM | 1.51 µM | 6.01 µM | 1.65 µM | 6 µM | 0.33 µM | 1.42 µM | 2.93 µM | 11.5 µM | 1.89 µM | 4.57 µM
N#Cc1ccc(N2Cc3cc(Cl)ccc3OC3=C2C(=O)N(Cc2ccc(F)cc2)C3=O)cc1 | 0.973 µM | 2.89 µM | 0.275 µM | 0.934 µM | 0.23 µM | 0.469 µM | 0.587 µM | 1.35 µM | 0.559 µM | 1.13 µM | 1.62 µM | 3.75 µM | 0.811 µM | 2.7 µM | 0.475 µM | 1.01 µM | 0.737 µM | 1.93 µM | 0.314 µM | 0.867 µM
O=C1c2cccc3cccc(c23)C(=O)N1CC#Cc1ccc2c3c(cccc13)C(=O)N(CCN1CCNCC1)C2=O | 2.1 µM | 4.94 µM | 2.12 µM | 4.79 µM | 4.12 µM | > 100 µM | 2 µM | 3.96 µM | 1.84 µM | 3.7 µM | 20.3 µM | 52.3 µM | 2.38 µM | 5.74 µM | 2.03 µM | 5.04 µM | 2.82 µM | 10.3 µM | 18.5 µM | 42 µM
CN=c1ss/c(=N\C(=S)N(C)C)n1C1CCCCC1 | – | > 31.6 µM | – | > 10 µM | – | > 100 µM | – | > 31.6 µM | – | > 31.6 µM | – | > 31.6 µM | – | > 31.6 µM | – | > 31.6 µM | – | > 31.6 µM | – | > 31.6 µM
Cc1cc(Br)c2nsnc2c1[N+](=O)[O-] | 2.07 µM | 4.44 µM | 1.77 µM | 3.63 µM | 1.86 µM | 4.56 µM | 2.04 µM | 4.31 µM | 2.08 µM | 6.55 µM | 7.13 µM | 19.2 µM | 1.9 µM | 3.9 µM | 0.176 µM | 0.381 µM | 4.55 µM | 15.9 µM | 3.45 µM | 8.89 µM
CC(=O)Nc1c(I)c(C(=O)O)c(I)c(N(C)C(C)=O)c1I | > 100 µM | > 100 µM | > 100 µM | > 100 µM | > 100 µM | > 100 µM | > 100 µM | > 100 µM | > 100 µM | > 100 µM | > 100 µM | > 100 µM | > 100 µM | > 100 µM | > 100 µM | > 100 µM | > 100 µM | > 100 µM | > 100 µM | > 100 µM
C[C@@H](Oc1cc(-c2cnn(C3CC4(CNC4)C3)c2)cnc1N)c1c(Cl)ccc(F)c1Cl | 5.42 µM | 19.7 µM | 2.09 µM | 8.87 µM | 1.59 µM | 6.76 µM | 1.7 µM | 5.98 µM | 1.53 µM | 3.89 µM | 6.81 µM | 24.3 µM | 1.97 µM | 16 µM | 10.2 µM | 25.4 µM | 1.82 µM | 14.2 µM | 3.58 µM | 15.1 µM
CCc1ccc(Oc2nccc(-c3c(-c4ccc(F)cc4)ncn3C3CCNCC3)n2)cc1 | 3.94 µM | 7.61 µM | 5.84 µM | 13.9 µM | 5.78 µM | 11.5 µM | 3.84 µM | 8.15 µM | 4.62 µM | 9.13 µM | 6.81 µM | 16.3 µM | 10.7 µM | 15.1 µM | 4.73 µM | 8.67 µM | 6.45 µM | 15.1 µM | 5.24 µM | 9.48 µM
NC(=O)c1ccccc1NC(=O)C(=O)Nc1n[nH]c(N)n1 | – | > 100 µM | – | > 100 µM | – | > 100 µM | – | > 100 µM | – | > 100 µM | – | > 100 µM | – | > 100 µM | – | > 100 µM | – | > 100 µM | – | > 100 µM
C=C1C(=O)O[C@H]2[C@H]1CC/C(COC(=O)c1cccc3ccccc13)=C\CC[C@@]1(C)O[C@@H]21 | 1.98 µM | 3.76 µM | 1.23 µM | 2.53 µM | 1.66 µM | 7.56 µM | 0.696 µM | 2.42 µM | 1.76 µM | 3.66 µM | 1.29 µM | 2.83 µM | 1.78 µM | 3.7 µM | 1.66 µM | 3.22 µM | 2.27 µM | 5.58 µM | 1.63 µM | 3.38 µM
Oc1[nH]c2ccc(Cl)cc2c1/C=c1/ccc2c(c1)N=C(c1ccc(C(F)(F)F)cc1)N=2 | 2.1 µM | 4.81 µM | 1.98 µM | 5.02 µM | 2.61 µM | 5.55 µM | 1.78 µM | 3.94 µM | 2.34 µM | 6.57 µM | 3.13 µM | 11.6 µM | 3.08 µM | 13.6 µM | 1.66 µM | 3.24 µM | 3.1 µM | 12.3 µM | 1.97 µM | 3.79 µM
NC(Cn1ccc(=O)c(O)c1)C(=O)O (stereo not drawn) | – | > 100 µM | – | > 100 µM | – | > 100 µM | – | > 100 µM | – | > 100 µM | – | > 100 µM | – | > 100 µM | – | > 100 µM | – | > 100 µM | – | > 100 µM
O=NNc1ccc(Sc2ccc3ccccc3c2)cn1 | – | 31.2 µM | – | 40.6 µM | – | 24.9 µM | – | > 100 µM | – | 35.6 µM | – | > 100 µM | – | > 100 µM | – | 54 µM | – | > 100 µM | – | 43.4 µM
O=C1/C(=C\c2ccc([N+](=O)[O-])cc2)CS(=O)(=O)C/C1=C/c1ccc([N+](=O)[O-])cc1 | 11.3 µM | 25.6 µM | 0.0821 µM | 0.227 µM and 1.28 µM | 0.0138 µM | 0.145 µM | 0.127 µM | 0.382 µM and 2.77 µM | 0.32 µM | 2.12 µM | 0.163 µM | – | 0.252 µM | 0.651 µM and 5.12 µM | 0.168 µM | 0.398 µM and 1.29 µM | 0.126 µM | – | 0.366 µM | 3.17 µM
